Patent US20250041282A1, “METHOD FOR TREATING INFLAMMATORY PULMONARY DISEASE” (FU JEN CATHOLIC UNIVERSITY, priority 2021, published 2025)

Assays:
[1] = tested on: C57BL/6 mice with LPS-induced systemic inflammation; assay: Lung function in mice with LPS-induced systemic inflammation (Buxco); type: in vivo, mouse; conditions: FJU-C28 5 mg/kg, LPS 7.5 mg/kg, 24 hours
Description: Ten-week-old male C57BL/6 mice from BioLasco Taiwan Co., Ltd. (Taipei, Taiwan) were used in the present study. The mice were maintained under standard laboratory conditions as described in a previous study.^34 All animal procedures were approved by the Institutional Animal Care and Use Committee of Fu Jen Catholic University (IACUC approval number: A10508). We also confirmed that all experiments were performed in compliance with the ARRIVE guidelines. All surgeries were performed under anesthesia, and all efforts were made to minimize the pain and discomfort of the animals. The mice were randomly assigned to three groups: control (n=7), LPS (n=7) and LPS plus C28 (n=8). The mice were injected with/without FJU-C28 (5 mg/kg) dissolved in DMSO/PBS buffer, and after one hour the mice were stimulated with an intraperitoneal injection of LPS (7.5 mg/kg) in PBS buffer. At 24 hours after LPS stimulation, the mice were anesthetized i.p. with a mixture of ketamine (100 mg/kg) (Pfizer, New York, US) and xylazine (10 mg/kg) (Bayer, Leverkusen, Germany), endotracheally intubated with an airway catheter and connected to a forced pulmonary maneuver system (Buxco Research System; Buxco Electronics, Wilmington, NC). The detailed procedure was performed as described in a previous study.^34 The lung function values, including C chord (lung compliance), IC (inspiratory capacity), VC (vital capacity), FEV100 (forced expiratory volume at 100 ms) and FVC (forced vital capacity), were measured using a Buxco Research System. After the lung function assays, the experimental mice were sacrificed, and blood was collected by cardiac puncture. The lung lobes were inflated with 4% buffered paraformaldehyde via a catheter. Slides of lung specimens at a thickness of 5 μm were stained with hematoxylin and eosin for light microscopic analysis.
To evaluate the protective effect of FJU-C28 on lung function in mice with systemic inflammation induced by endotoxin, male C57BL/6 mice were administered LPS (7.5 mg/kg) and treated with/without FJU-C28 (5 mg/kg) for 24 hours; subsequently, lung function parameters were measured using a Buxco pulmonary function test system. […] However, treatment with FJU-C28 restored the LPS-induced decreases in lung function including VC (p<0.05), C chord, FEV100 (p<0.05), and FVC (p<0.05), compared to those of LPS-treated mice (FIG. 11). To confirm the status of LPS-induced lung injury in mice, histological examination of lung specimens was performed by H&E staining. […] To ascertain the correlation between target cytokines and lung injury, serum cytokines were measured by ELISA.

[2] = tested on: RAW264.7 macrophages; assay: ELISA of cytokines in cell culture media; type: cell-based, mouse
Description: (§1) RANTES (RayBiotech), IL-1β and IL-6 (eBioscience, San Diego, CA, USA) concentrations in cell culture media and mouse serum were measured using ELISA kits according to the manufacturer's instructions. The plates were measured at […] using an Epoch microplate spectrophotometer (BioTek Instruments, Winooski, VT, USA). The concentrations of RANTES, IL-1β and IL-6 in the samples were determined by standard curves.
For identifying the potential signaling pathways which regulate the secretion of IL-6 and RANTES induced by LPS stimulation, RAW264.7 macrophages were pretreated with various kinase inhibitors for 30 min and then stimulated with/without 100 ng/ml LPS for 24 h; the cell culture media was harvested for ELISA assay. […] (FIG. 6A). To investigate whether FJU-C28 could mediate the transcriptional activity of NF-κB (p65), the translocation of NF-κB p65 was examined in LPS-stimulated macrophages.

[3] = tested on: RAW264.7 macrophages; assay: Cytokine protein array analysis of conditioned culture media; type: cell-based, mouse
Description: Cytokine array analysis was performed according to the procedure recommended by the Raybio mouse cytokine antibody array 4 (RayBiotech, Inc. Peachtree Corners, GA). This cytokine protein array was used to simultaneously determine the relative levels of 40 different cytokines, chemokines, and acute-phase proteins in a single sample. One hundred microliters of cell culture medium was used for each sample. The signal intensity in the membrane of the cytokine protein array was measured by using ImageJ software and is presented as a heat map drawn by using MultiExperiment Viewer (MeV V.4.9.0) software.
To distinguish the effect of various FJU-Cs on LPS-induced inflammation, the cell culture media of RAW264.7 macrophages treated with various conditions were harvested and analyzed by using a mouse cytokine antibody array (left panel of FIG. 3). The signal intensities on the array membranes were quantified by densitometry, and the changes in different cytokines are represented as a heat map (right panel of FIG. 3).

[4] = tested on: C57BL/6 mice with LPS-induced systemic inflammation; assay: Serum cytokines by ELISA in mice with LPS-induced systemic inflammation; type: in vivo, mouse; conditions: FJU-C28 5 mg/kg, LPS 7.5 mg/kg; FIG. 12B
Description: as §1
Ten-week-old male C57BL/6 mice from BioLasco Taiwan Co., Ltd. (Taipei, Taiwan) were used in the present study. […] The detailed procedure was performed as described in a previous study.^34 The lung function values, including C chord (lung compliance), IC (inspiratory capacity), VC (vital capacity), FEV100 (forced expiratory volume at 100 ms) and FVC (forced vital capacity), were measured using a Buxco Research System. […]
To evaluate the protective effect of FJU-C28 on lung function in mice with systemic inflammation induced by endotoxin, male C57BL/6 mice were administered LPS (7.5 mg/kg) and treated with/without FJU-C28 (5 mg/kg) for 24 hours; subsequently, lung function parameters were measured using a Buxco pulmonary function test system. […] To ascertain the correlation between target cytokines and lung injury, serum cytokines were measured by ELISA.

[5] = LPS-treated macrophages, cell culture media, FIG. 4C/4D

SMILES: C=CCC1CC(Sc2ccccc2)=CC(=O)N1C(=O)C=C (centres unmarked) [FJU-C28]
- forced expiratory volume at 100 ms (FEV100) ([1]; p<0.05 vs LPS-treated mice): restored
- forced vital capacity (FVC) ([1]; p<0.05 vs LPS-treated mice): restored
- vital capacity (VC) ([1]; p<0.05 vs LPS-treated mice): restored
- lung compliance (C chord) ([1]; vs LPS-treated mice): restored
- production of IL-1β (ELISA) [2, 5]: dramatically reduced
- production of IL-6 (ELISA) [2, 5]: dramatically reduced
- LPS-induced expression of RANTES (ELISA) ([2]; at 6 hours or 24 hours, FIG. 4A): dramatically suppressed
- LPS-induced secretion of TIMP1, IL-6 and IL-10 (array, in words) ([3]; FIG. 3): dramatically suppressed
- LPS-induced secretion/expression of RANTES (array, in words) ([3]; FIG. 3): dramatically suppressed
- Protein array, fold change (mean ± S.E.): BLC ([3]; LPS + compound / control): 1.3 ± 0.1 fold change
- Protein array, fold change (mean ± S.E.): CD30 L ([3]; LPS + compound / control): 1.6 ± 0.9 fold change
- Protein array, fold change (mean ± S.E.): Eotaxin ([3]; LPS + compound / control): 10.3 ± 6.1 fold change
- Protein array, fold change (mean ± S.E.): Eotaxin-2 ([3]; LPS + compound / control): 2.0 ± 1.0 fold change
- Protein array, fold change (mean ± S.E.): Fas ligand ([3]; LPS + compound / control): 1.1 ± 0.8 fold change
- Protein array, fold change (mean ± S.E.): Fractalkine ([3]; LPS + compound / control): 1.0 ± 0.6 fold change
- Protein array, fold change (mean ± S.E.): GCSF ([3]; LPS + compound / control): 20.1 ± 1.9 fold change
- Protein array, fold change (mean ± S.E.): GM-CSF ([3]; LPS + compound / control): 1.5 ± 0.4 fold change
- Protein array, fold change (mean ± S.E.): I-TAC ([3]; LPS + compound / control): 0.8 ± 0.3 fold change
- Protein array, fold change (mean ± S.E.): IL-1B ([3]; LPS + compound / control): 2.6 ± 0.0 fold change
- Protein array, fold change (mean ± S.E.): IL-1α ([3]; LPS + compound / control): 1.1 ± 0.1 fold change
- Protein array, fold change (mean ± S.E.): IL-2 ([3]; LPS + compound / control): 2.1 ± 0.2 fold change
- Protein array, fold change (mean ± S.E.): IL-3 ([3]; LPS + compound / control): 1.1 ± 0.2 fold change
- Protein array, fold change (mean ± S.E.): IL-4 ([3]; LPS + compound / control): 1.2 ± 0.2 fold change
- Protein array, fold change (mean ± S.E.): IL-6 ([3]; LPS + compound / control): 1.1 ± 0.2 fold change
- Protein array, fold change (mean ± S.E.): IL-9 ([3]; LPS + compound / control): 0.9 ± 0.3 fold change
- Protein array, fold change (mean ± S.E.): IL-10 ([3]; LPS + compound / control): 0.3 ± 0.2 fold change
- Protein array, fold change (mean ± S.E.): IL-12 p70 ([3]; LPS + compound / control): 0.8 ± 0.2 fold change
- Protein array, fold change (mean ± S.E.): IL-12 p-40 p70 ([3]; LPS + compound / control): 0.9 ± 0.1 fold change
- Protein array, fold change (mean ± S.E.): IL-13 ([3]; LPS + compound / control): 0.6 ± 0.0 fold change
- Protein array, fold change (mean ± S.E.): IL-17 ([3]; LPS + compound / control): 7.8 ± 5.3 fold change
- Protein array, fold change (mean ± S.E.): INF gamma ([3]; LPS + compound / control): 1.4 ± 0.2 fold change
- Protein array, fold change (mean ± S.E.): KC ([3]; LPS + compound / control): 0.8 ± 0.4 fold change
- Protein array, fold change (mean ± S.E.): LIX ([3]; LPS + compound / control): 1.0 ± 0.2 fold change
- Protein array, fold change (mean ± S.E.): Leptin ([3]; LPS + compound / control): 3.2 ± 0.8 fold change
- Protein array, fold change (mean ± S.E.): Lymphotactin ([3]; LPS + compound / control): 0.7 ± 0.2 fold change
- Protein array, fold change (mean ± S.E.): MCP-1 ([3]; LPS + compound / control): 1.7 ± 0.2 fold change
- Protein array, fold change (mean ± S.E.): MCSF ([3]; LPS + compound / control): 0.8 ± 0.1 fold change
- Protein array, fold change (mean ± S.E.): MIP-1α ([3]; LPS + compound / control): 1.0 ± 0.2 fold change
- Protein array, fold change (mean ± S.E.): MIP-1γ ([3]; LPS + compound / control): 1.2 ± 0.2 fold change
- Protein array, fold change (mean ± S.E.): RANTES ([3]; LPS + compound / control): 1.3 ± 0.2 fold change
- Protein array, fold change (mean ± S.E.): SDF1 ([3]; LPS + compound / control): 0.9 ± 0.2 fold change
- Protein array, fold change (mean ± S.E.): STNFRI ([3]; LPS + compound / control): 1.0 ± 0.0 fold change
- Protein array, fold change (mean ± S.E.): STNFRII ([3]; LPS + compound / control): 2.1 ± 0.1 fold change
- Protein array, fold change (mean ± S.E.): TCA-3 ([3]; LPS + compound / control): 0.9 ± 0.1 fold change
- Protein array, fold change (mean ± S.E.): TECK ([3]; LPS + compound / control): 0.5 ± 0.3 fold change
- Protein array, fold change (mean ± S.E.): TIMP-1 ([3]; LPS + compound / control): 1.1 ± 0.1 fold change
- Protein array, fold change (mean ± S.E.): TIMP-2 ([3]; LPS + compound / control): 0.0 ± 0.0 fold change
- Protein array, fold change (mean ± S.E.): TNFα ([3]; LPS + compound / control): 21.0 ± 0.8 fold change
- circulating (serum) level of IL-6 [4]: significantly suppressed
- circulating (serum) level of RANTES [4]: significantly suppressed
